Data published in ChEMBL document CHEMBL5465560, “Selectivity Literature for EUbOPEN Chemogenomic Library” (2024).
Values belong to the compound of their own block, whether it stands above or below them.

Experiments:
[1] = target: Serine/threonine-protein kinase SIK2 (Homo sapiens) (UniProt Q9H0K1); assay: Selectivity interaction (Kinase panel (Z-LYTE Assay)) EUB0001632a SIK2; conditions: at 10 µM
[2] = target: T1, Rhodopsin kinase GRK7 (Homo sapiens) (UniProt Q8WTQ7); assay: Selectivity interaction (Kinase panel (Z-LYTE Assay)) EUB0001632a GRK7; conditions: at 10 µM
T1 sequence (whole entry): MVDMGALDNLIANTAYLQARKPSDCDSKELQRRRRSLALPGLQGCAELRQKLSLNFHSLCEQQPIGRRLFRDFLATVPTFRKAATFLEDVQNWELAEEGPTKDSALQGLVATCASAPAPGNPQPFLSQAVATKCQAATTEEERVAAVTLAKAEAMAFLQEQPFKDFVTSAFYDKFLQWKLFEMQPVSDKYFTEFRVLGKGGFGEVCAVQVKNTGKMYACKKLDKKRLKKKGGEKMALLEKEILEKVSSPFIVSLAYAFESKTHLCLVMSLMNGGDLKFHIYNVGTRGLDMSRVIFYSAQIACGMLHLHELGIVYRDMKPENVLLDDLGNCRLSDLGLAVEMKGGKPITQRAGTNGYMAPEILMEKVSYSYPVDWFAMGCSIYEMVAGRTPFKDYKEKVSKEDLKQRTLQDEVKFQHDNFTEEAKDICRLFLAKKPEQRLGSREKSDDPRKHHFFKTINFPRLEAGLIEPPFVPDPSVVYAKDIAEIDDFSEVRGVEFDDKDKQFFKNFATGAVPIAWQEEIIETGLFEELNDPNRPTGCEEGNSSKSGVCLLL

[3] = target: T2, TGF-beta receptor type-1 (Homo sapiens) (UniProt P36897); assay: Selectivity interaction (LanthaScreen Eu Kinase Binding Assay) EUB0001632a TGFBR1; conditions: at 10 µM
T2 sequence (whole entry): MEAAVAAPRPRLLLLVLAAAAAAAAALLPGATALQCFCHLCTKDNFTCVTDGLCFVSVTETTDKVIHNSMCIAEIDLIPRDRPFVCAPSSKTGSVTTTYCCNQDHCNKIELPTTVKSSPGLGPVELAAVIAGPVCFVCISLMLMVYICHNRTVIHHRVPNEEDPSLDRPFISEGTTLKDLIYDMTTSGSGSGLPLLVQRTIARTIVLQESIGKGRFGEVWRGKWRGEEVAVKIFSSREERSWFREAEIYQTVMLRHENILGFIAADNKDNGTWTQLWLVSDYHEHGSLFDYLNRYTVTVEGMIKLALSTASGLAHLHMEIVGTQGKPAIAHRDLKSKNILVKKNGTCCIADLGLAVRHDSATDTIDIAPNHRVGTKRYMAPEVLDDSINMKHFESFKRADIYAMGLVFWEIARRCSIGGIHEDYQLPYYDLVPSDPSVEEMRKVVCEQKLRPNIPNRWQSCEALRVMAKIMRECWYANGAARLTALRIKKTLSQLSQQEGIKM

[4] = target: Serine/threonine-protein kinase 24 (Homo sapiens) (UniProt Q9Y6E0); assay: Selectivity interaction (KinomeScan (DiscoverX)) EUB0000666a STK24; conditions: at 10 µM
[5] = target: Transient receptor potential cation channel subfamily M member 6 (Homo sapiens) (UniProt Q9BX84); assay: Selectivity interaction (KinomeScan (DiscoverX)) EUB0000607a TRPM6; conditions: at 10 µM
[6] = target: T3, Muscarinic acetylcholine receptor M2 (Homo sapiens) (UniProt P08172); assay: Selectivity interaction (Panel of kinases, GPCRs, ion channels and transporters (enzymatic assay)) EUB0000266bCl CHRM2
T3 sequence (whole entry): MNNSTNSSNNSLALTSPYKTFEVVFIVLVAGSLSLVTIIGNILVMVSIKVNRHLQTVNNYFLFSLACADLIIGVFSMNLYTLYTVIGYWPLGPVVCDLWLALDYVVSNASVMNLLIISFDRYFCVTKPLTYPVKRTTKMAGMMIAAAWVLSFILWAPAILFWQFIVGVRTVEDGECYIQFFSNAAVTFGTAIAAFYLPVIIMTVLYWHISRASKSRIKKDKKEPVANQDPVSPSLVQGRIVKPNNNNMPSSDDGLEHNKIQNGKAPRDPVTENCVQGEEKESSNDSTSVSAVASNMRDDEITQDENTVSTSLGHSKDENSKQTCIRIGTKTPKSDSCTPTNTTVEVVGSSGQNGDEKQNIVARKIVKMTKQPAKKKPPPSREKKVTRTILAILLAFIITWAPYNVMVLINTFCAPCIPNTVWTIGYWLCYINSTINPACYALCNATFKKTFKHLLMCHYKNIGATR

[7] = target: 5'-AMP-activated protein kinase catalytic subunit alpha-1 (Homo sapiens, UniProt Q13131); assay: Selectivity interaction (Upstate Kinase Profiler service (Millipore)) EUB0000056c PRKAA1; conditions: at 1 µM
[8] = target: Ephrin type-A receptor 7 (Homo sapiens) (UniProt Q15375); assay: Selectivity interaction (Kinase panel (DSF assay)) EUB0001559a EPHA7
[9] = target: Mitogen-activated protein kinase kinase kinase 9 (Homo sapiens) (UniProt P80192); assay: Selectivity interaction (Ambit KINOMEscan and KiNATiv profiling in Jurkat cells) EUB0000090b MAP3K9; type: cell-based; conditions: at 1 µM
[10] = target: Casein kinase II subunit alpha' (Homo sapiens) (UniProt P19784); assay: Selectivity interaction (KinomeScan (DiscoverX)) EUB0000092b CSNK2A2; conditions: at 10 µM
[11] = target: Casein kinase I isoform epsilon (Homo sapiens, UniProt P49674); assay: Selectivity interaction (KinomeScan (DiscoverX)) EUB0001619a CSNK1E; conditions: at 1 µM
Sequence of Casein kinase I isoform epsilon (P49674 whole entry, looked up, canonical isoform): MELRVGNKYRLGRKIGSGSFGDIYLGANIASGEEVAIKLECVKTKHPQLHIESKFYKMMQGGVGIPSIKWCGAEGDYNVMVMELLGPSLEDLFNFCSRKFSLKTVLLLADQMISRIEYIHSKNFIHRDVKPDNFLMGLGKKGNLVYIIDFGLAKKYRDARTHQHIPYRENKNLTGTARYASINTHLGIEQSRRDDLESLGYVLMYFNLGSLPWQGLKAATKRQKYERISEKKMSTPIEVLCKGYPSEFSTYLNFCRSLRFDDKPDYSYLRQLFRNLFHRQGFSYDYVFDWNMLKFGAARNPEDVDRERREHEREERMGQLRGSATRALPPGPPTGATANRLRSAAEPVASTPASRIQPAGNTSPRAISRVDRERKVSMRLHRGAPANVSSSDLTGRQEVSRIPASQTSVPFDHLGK

Sequence of Ephrin type-A receptor 7 (Homo sapiens) (Q15375 28-998 limits assumed): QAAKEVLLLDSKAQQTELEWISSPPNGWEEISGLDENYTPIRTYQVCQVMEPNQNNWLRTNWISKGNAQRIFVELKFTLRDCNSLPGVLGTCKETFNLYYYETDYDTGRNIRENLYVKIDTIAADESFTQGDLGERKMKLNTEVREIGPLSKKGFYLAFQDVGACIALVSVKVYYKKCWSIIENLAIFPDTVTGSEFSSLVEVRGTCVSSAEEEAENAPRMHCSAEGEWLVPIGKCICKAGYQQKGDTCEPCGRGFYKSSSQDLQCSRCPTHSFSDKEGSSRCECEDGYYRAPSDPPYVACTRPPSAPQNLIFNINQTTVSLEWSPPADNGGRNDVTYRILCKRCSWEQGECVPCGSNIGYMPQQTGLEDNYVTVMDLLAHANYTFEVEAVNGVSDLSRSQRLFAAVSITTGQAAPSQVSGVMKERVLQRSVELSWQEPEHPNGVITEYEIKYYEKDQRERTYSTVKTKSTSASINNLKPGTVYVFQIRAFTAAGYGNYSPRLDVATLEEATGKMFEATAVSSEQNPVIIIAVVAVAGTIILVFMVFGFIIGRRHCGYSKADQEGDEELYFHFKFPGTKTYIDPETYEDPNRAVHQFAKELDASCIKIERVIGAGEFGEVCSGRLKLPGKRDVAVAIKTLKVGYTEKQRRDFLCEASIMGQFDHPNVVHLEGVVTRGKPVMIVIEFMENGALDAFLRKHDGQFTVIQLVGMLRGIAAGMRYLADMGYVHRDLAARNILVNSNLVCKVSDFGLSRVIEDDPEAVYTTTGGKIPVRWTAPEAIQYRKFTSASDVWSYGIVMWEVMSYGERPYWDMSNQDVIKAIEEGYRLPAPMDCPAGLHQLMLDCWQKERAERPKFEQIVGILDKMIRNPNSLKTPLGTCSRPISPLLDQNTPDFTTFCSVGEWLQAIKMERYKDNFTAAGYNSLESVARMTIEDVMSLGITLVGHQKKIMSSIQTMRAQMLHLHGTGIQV
Sequence of Transient receptor potential cation channel subfamily M member 6 (Homo sapiens) (Q9BX84 whole entry): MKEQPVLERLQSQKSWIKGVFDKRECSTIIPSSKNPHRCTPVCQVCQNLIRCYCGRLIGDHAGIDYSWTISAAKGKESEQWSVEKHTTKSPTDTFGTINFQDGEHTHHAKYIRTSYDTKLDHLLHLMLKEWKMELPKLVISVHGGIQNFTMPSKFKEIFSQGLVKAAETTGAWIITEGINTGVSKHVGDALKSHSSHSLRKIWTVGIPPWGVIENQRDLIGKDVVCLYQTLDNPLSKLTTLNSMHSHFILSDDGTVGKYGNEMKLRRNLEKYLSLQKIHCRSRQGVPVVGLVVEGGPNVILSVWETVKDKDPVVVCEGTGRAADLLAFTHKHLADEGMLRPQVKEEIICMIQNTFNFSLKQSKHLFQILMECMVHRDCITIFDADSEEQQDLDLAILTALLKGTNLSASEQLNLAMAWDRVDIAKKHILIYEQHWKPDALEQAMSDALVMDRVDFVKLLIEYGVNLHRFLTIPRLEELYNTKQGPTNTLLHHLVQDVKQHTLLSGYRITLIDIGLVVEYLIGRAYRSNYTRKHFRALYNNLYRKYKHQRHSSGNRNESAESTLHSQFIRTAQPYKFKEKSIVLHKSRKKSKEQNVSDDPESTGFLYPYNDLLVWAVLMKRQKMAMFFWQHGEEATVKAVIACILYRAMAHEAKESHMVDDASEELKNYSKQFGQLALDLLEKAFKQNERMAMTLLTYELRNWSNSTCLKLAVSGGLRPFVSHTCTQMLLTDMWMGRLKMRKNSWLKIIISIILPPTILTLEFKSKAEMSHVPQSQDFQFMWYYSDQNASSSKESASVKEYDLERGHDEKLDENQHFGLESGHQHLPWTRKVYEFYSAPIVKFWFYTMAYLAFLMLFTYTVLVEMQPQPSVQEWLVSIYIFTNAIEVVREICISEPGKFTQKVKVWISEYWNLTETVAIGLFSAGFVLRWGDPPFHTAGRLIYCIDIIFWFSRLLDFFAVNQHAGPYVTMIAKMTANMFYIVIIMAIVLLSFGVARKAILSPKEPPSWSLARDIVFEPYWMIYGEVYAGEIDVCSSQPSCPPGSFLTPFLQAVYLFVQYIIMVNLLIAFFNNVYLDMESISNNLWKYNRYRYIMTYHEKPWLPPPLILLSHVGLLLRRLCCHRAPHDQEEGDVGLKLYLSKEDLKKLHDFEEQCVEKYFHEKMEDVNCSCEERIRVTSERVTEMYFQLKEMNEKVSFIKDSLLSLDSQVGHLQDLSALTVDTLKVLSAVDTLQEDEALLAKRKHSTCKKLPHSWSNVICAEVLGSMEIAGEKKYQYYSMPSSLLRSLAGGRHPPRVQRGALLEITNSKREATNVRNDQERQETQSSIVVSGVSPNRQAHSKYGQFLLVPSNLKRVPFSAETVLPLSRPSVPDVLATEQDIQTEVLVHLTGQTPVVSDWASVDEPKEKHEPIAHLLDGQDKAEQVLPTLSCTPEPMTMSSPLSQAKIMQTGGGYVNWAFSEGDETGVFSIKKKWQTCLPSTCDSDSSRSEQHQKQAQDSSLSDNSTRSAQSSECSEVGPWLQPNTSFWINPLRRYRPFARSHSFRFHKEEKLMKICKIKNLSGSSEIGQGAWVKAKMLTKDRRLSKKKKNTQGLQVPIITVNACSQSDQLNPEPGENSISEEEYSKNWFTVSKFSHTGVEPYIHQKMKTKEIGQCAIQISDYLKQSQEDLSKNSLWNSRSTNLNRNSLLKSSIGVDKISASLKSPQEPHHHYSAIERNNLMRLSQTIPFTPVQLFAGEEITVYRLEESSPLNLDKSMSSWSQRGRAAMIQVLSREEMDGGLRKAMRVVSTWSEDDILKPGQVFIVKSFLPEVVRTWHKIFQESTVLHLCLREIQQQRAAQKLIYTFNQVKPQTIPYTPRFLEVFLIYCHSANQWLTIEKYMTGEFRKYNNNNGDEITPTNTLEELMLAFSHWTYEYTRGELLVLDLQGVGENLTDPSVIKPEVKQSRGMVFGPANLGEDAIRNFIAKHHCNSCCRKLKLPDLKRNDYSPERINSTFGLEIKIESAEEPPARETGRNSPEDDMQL
Sequence of Serine/threonine-protein kinase 24 (Homo sapiens) (Q9Y6E0 whole entry, looked up): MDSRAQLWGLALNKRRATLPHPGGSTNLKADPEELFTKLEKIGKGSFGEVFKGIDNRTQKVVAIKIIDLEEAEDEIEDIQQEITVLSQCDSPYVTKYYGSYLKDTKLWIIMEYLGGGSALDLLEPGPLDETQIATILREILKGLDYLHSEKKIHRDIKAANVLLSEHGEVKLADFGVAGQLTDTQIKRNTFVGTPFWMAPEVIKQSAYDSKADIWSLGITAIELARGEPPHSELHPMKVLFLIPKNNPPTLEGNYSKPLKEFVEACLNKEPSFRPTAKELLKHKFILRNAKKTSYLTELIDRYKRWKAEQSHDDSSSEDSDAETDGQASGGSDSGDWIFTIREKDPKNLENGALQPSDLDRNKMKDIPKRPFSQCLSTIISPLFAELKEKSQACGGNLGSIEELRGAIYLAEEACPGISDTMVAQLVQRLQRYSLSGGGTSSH
Sequence of Casein kinase II subunit alpha' (Homo sapiens) (P19784 whole entry, looked up, canonical isoform): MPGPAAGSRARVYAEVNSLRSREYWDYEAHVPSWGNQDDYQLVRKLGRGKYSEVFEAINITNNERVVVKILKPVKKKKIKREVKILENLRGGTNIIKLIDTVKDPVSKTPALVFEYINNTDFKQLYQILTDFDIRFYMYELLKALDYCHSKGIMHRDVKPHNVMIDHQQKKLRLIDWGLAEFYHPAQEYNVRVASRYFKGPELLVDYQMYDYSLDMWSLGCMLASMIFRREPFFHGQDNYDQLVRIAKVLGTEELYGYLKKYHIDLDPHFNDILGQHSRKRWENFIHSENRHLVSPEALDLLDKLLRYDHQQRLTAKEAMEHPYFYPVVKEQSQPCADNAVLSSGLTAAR
Sequence of 5'-AMP-activated protein kinase catalytic subunit alpha-1 (Q13131 whole entry, looked up): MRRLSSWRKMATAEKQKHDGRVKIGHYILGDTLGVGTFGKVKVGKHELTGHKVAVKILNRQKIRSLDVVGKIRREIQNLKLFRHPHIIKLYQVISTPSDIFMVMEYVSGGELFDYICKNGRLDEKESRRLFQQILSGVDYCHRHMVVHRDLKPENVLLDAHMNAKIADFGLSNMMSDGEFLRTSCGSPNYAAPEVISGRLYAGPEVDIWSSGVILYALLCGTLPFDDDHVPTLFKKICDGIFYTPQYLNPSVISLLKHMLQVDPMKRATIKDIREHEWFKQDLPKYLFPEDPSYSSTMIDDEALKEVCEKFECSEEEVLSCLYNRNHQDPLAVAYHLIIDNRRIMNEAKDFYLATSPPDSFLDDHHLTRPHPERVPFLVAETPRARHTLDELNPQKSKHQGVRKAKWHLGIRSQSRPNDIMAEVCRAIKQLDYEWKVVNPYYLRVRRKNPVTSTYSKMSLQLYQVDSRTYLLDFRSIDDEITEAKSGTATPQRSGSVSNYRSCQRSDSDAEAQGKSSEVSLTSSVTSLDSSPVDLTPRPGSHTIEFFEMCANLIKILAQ

% of control [1]: 5.35%
% of control [2]: -0.279%
% of inhibition [3]: 0.691%
Structure (SMILES): Cn1cc(-n2cnc3c(NCc4nc5cc(Cl)c(Cl)cc5[nH]4)nc(N4CCOCC4)nc32)cn1

Structure (SMILES): O=C(NOC[C@H](O)CO)c1ccc(F)c(F)c1Nc1ccc(I)cc1F
% of control [4]: 88%

Structure (SMILES): CNC(=O)Nc1ccc(-c2nc(N3CC4CCC(C3)O4)c3cnn(C4CCC5(CC4)OCCO5)c3n2)cc1
% of control [5]: 100%

pXC50 [6]: < 4.8 M
Structure (SMILES): CCn1c(-c2nc3cc(C(=O)N4CCCC(N)C4)ccc3n2C)cc2ccccc21 (stereo unspecified)

% of inhibition [7]: 77%
Structure (SMILES): Cc1ccc(-c2ccc3c(ccc4sc5c(c43)NC[C@@H](C)NC5=O)n2)cn1

dTM [8]: 0.1 K
Structure (SMILES): CN(C(=O)c1cnn2cccnc12)c1cc2c(cc1N1CCOCC1)C(=O)N(C[C@@H](F)C(C)(C)O)C2

Structure (SMILES): CN(C)C/C=C/C(=O)Nc1ccc(C(=O)N2CCCC(Nc3ncc(Cl)c(-c4c[nH]c5ccccc45)n3)C2)cc1 (stereo unspecified)
% of control [9]: 100%

Structure (SMILES): CCC(=O)N1CCN(c2ccc(-n3c(=O)ccc4cnc5ccc(-c6cnc7ccccc7c6)cc5c43)cc2C(F)(F)F)CC1
% of control [10]: 11%

Structure (SMILES): N#Cc1cccc(-c2c[nH]c3ncnc(N4CCOCC4)c23)c1
% of control [11]: 75%
